Results taken from ChEMBL document CHEMBL4673230, “Total Synthesis of Natural Lembehyne C and Investigation of Its Cytotoxic Properties” (J Nat Prod, 2020).

How the values were obtained:
Jurkat [1] = assay: Induction of cell cycle arrest in human Jurkat cells assessed as accumulation at G1 phase at 50 nM after 24 hrs by Guava Cell Cycle reagent based flow cytometric analysis relative to control; type: functional
Jurkat [2] = assay: Induction of apoptosis in human Jurkat cells assessed as late apoptotic cells at 50 nM after 24 hrs by Annexin V/7-AAD staining.based flow cytometric analysis relative to control; type: functional
[3] = Effect on total p70S6K level in human jurkat cells at 400 nM by magnetic bead based immunoassay; type: cell-based; settings: 0.4 µM
HL-60 = assay: Cytotoxicity against human HL-60 cells assessed as reduction in cell viability by 7-AAD staining based flow cytometric analysis; type: functional
Jurkat [4] = assay: Induction of apoptosis in human Jurkat cells assessed as late apoptotic cells at 100 nM after 24 hrs by Annexin V/7-AAD staining.based flow cytometric analysis relative to control; type: functional
Jurkat [5] = assay: Induction of ROS generation in human Jurkat cells assessed as apoptotic cells at 200 nM after 24 hrs by MitoSox Red/annexin V-CF488A staining based flow cytometric analysis (reference value: 3.18%); type: functional
Jurkat [6] = assay: Induction of ROS generation in human Jurkat cells at 200 nM after 2 hrs by MitoSox Red/annexin V-CF488A staining based flow cytometric analysis relative to control; type: functional
Jurkat [7] = assay: Induction of cell cycle arrest in human Jurkat cells assessed as accumulation at G2/G1 phase at 100 nM after 24 hrs by Guava Cell Cycle reagent based flow cytometric analysis relative to control; type: functional
Jurkat [8] = assay: Induction of mitochondrial membrane potential loss in human Jurkat cells assessed as live cells at 400 nM after 4 hrs by MitoSense Red/7-AAD. flow cytometric analysis relative to control; type: functional
Jurkat [9] = assay: Induction of cell cycle arrest in human Jurkat cells assessed as accumulation at G2/G1 phase at 200 nM after 24 hrs by Guava Cell Cycle reagent based flow cytometric analysis relative to control; type: functional
[10] = Effect on total AKT level in human jurkat cells at 400 nM by magnetic bead based immunoassay; type: cell-based; settings: 0.4 µM
Jurkat [11] = assay: Induction of apoptosis in human Jurkat cells assessed as viable cells at 200 nM after 24 hrs by Annexin V/7-AAD staining.based flow cytometric analysis relative to control; type: functional; settings: read-out: Activity
Jurkat [12] = assay: Induction of ROS generation in human Jurkat cells assessed as living undamaged cells at 200 nM after 24 hrs by MitoSox Red/annexin V-CF488A staining based flow cytometric analysis (reference value: 95.44%); type: functional
Jurkat [13] = assay: Induction of cell cycle arrest in human Jurkat cells assessed as accumulation at G2 phase at 100 nM after 24 hrs by Guava Cell Cycle reagent based flow cytometric analysis relative to control; type: functional
Jurkat [14] = assay: Induction of ROS generation in human Jurkat cells assessed as apoptotic cells with clear mitochondrial damages at 200 nM after 4 hrs by MitoSox Red/annexin V-CF488A staining based flow cytometric analysis (reference value: 0.39%); type: functional
Jurkat [15] = assay: Induction of cell cycle arrest in human Jurkat cells assessed as accumulation at G1 phase at 200 nM after 24 hrs by Guava Cell Cycle reagent based flow cytometric analysis relative to control; type: functional
Jurkat [16] = assay: Induction of mitochondrial membrane potential loss in human Jurkat cells assessed as live cells at 200 nM after 4 hrs by MitoSense Red/7-AAD. flow cytometric analysis relative to control; type: functional
Jurkat [17] = assay: Induction of apoptosis in human Jurkat cells assessed as late apoptotic cells at 200 nM after 24 hrs by Annexin V/7-AAD staining.based flow cytometric analysis relative to control; type: functional
Jurkat [18] = assay: Induction of cell cycle arrest in human Jurkat cells assessed as accumulation at super-G2 phase at 100 nM after 24 hrs by Guava Cell Cycle reagent based flow cytometric analysis relative to control; type: functional
Jurkat [19] = assay: Induction of apoptosis in human Jurkat cells assessed as viable cells at 100 nM after 24 hrs by Annexin V/7-AAD staining.based flow cytometric analysis relative to control; type: functional; settings: read-out: Activity
[20] = Effect on total STAT5 level in human jurkat cells at 400 nM by magnetic bead based immunoassay; type: cell-based; settings: 0.4 µM
Jurkat [21] = assay: Induction of ROS generation in human Jurkat cells assessed as mitochondria damaged cells at 200 nM after 24 hrs by MitoSox Red/annexin V-CF488A staining based flow cytometric analysis (reference value: 0%); type: functional
Jurkat [22] = assay: Induction of apoptosis in human Jurkat cells assessed as necrotic cells at 400 nM after 24 hrs by Annexin V/7-AAD staining.based flow cytometric analysis relative to control; type: functional
[23] = Effect on total ERK1/2 level in human jurkat cells at 400 nM by magnetic bead based immunoassay; type: cell-based; settings: 0.4 µM
Jurkat [24] = assay: Induction of mitochondrial membrane potential loss in human Jurkat cells assessed as late apoptotic cells at 200 nM after 4 hrs by MitoSense Red/7-AAD. flow cytometric analysis relative to control; type: functional
Jurkat [25] = assay: Induction of cell cycle arrest in human Jurkat cells assessed as accumulation at G1 phase at 400 nM after 24 hrs by Guava Cell Cycle reagent based flow cytometric analysis relative to control; type: functional
Jurkat [26] = assay: Induction of ROS generation in human Jurkat cells assessed as apoptotic cells with clear mitochondrial damages at 200 nM after 24 hrs by MitoSox Red/annexin V-CF488A staining based flow cytometric analysis (reference value: 0.39%); type: functional
U-937 = assay: Cytotoxicity against human U937 cells assessed as reduction in cell viability by 7-AAD staining based flow cytometric analysis; type: functional
Jurkat [27] = assay: Induction of mitochondrial membrane potential loss in human Jurkat cells assessed as late apoptotic cells at 400 nM after 4 hrs by MitoSense Red/7-AAD. flow cytometric analysis relative to control; type: functional
Jurkat [28] = assay: Induction of mitochondrial membrane potential loss in human Jurkat cells assessed as early apoptotic cells at 200 nM after 4 hrs by MitoSense Red/7-AAD. flow cytometric analysis relative to control; type: functional
Jurkat [29] = assay: Induction of ROS generation in human Jurkat cells assessed as apoptotic cells at 200 nM after 4 hrs by MitoSox Red/annexin V-CF488A staining based flow cytometric analysis (reference value: 3.18%); type: functional
Jurkat [30] = assay: Induction of cell cycle arrest in human Jurkat cells assessed as accumulation at sub-G1 phase at 200 nM after 24 hrs by Guava Cell Cycle reagent based flow cytometric analysis relative to control; type: functional
Jurkat [31] = assay: Induction of cell cycle arrest in human Jurkat cells assessed as accumulation at G2 phase at 50 nM after 24 hrs by Guava Cell Cycle reagent based flow cytometric analysis relative to control; type: functional
Jurkat [32] = assay: Induction of apoptosis in human Jurkat cells assessed as necrotic cells at 50 nM after 24 hrs by Annexin V/7-AAD staining.based flow cytometric analysis relative to control; type: functional
[33] = Effect on total JNK in human jurkat cells at 400 nM by magnetic bead based immunoassay; type: cell-based; settings: 0.4 µM
Jurkat [34] = assay: Induction of cell cycle arrest in human Jurkat cells assessed as accumulation at G1 phase at 100 nM after 24 hrs by Guava Cell Cycle reagent based flow cytometric analysis relative to control; type: functional
Jurkat [35] = assay: Induction of apoptosis in human Jurkat cells assessed as early apoptotic cells at 200 nM after 24 hrs by Annexin V/7-AAD staining.based flow cytometric analysis relative to control; type: functional

**Q.** For `C#C[C@H](O)CCCCCCCCC/C=C\CC/C=C\CC/C=C\CCCCCCCCCCCCCCCC`, which Activity (Jurkat [1]) is on record?
**A.** 44.65%

**Q.** And the Activity (Jurkat [2])?
**A.** 23.53%

**Q.** What about the Activity [3] of the same compound?
**A.** Toxic

**Q.** What about the IC50 (HL-60) of the same compound?
**A.** 0.093 µM

**Q.** And the Activity (Jurkat [4])?
**A.** 39.78%

**Q.** What about the Activity (Jurkat [5]) of the same compound?
**A.** 45.78%

**Q.** What about the Activity (Jurkat [6]) of the same compound?
**A.** 25.4%

**Q.** What about the Activity (Jurkat [7]) of the same compound?
**A.** 1.94%

**Q.** And the Activity (Jurkat [8])?
**A.** 63.45%

**Q.** What about the Activity (Jurkat [9]) of the same compound?
**A.** 1.91%

**Q.** What about the Activity [10] of the same compound?
**A.** Toxic

**Q.** And the viability at 0.2 µM (Jurkat [11])?
**A.** 36.1%

**Q.** What about the Activity (Jurkat [12]) of the same compound?
**A.** 33.64%

**Q.** And the Activity (Jurkat [13])?
**A.** 7.28%

**Q.** What about the Activity (Jurkat [14]) of the same compound?
**A.** 25.4%

**Q.** And the Activity (Jurkat [15])?
**A.** 33.86%

**Q.** And the Activity (Jurkat [16])?
**A.** 95.64%

**Q.** What about the Activity (Jurkat [17]) of the same compound?
**A.** 43.15%

**Q.** And the Activity (Jurkat [18])?
**A.** 1.21%

**Q.** What about the viability at 0.1 µM (Jurkat [19]) of the same compound?
**A.** 41.7%

**Q.** What about the Activity [20] of the same compound?
**A.** Toxic

**Q.** What about the Activity (Jurkat [21]) of the same compound?
**A.** 0%

**Q.** And the Activity (Jurkat [22])?
**A.** 1.01%

**Q.** And the Activity [23]?
**A.** Toxic

**Q.** What about the Activity (Jurkat [24]) of the same compound?
**A.** 0.84%

**Q.** What about the Activity (Jurkat [25]) of the same compound?
**A.** 30.24%

**Q.** What about the Activity (Jurkat [26]) of the same compound?
**A.** 20.58%

**Q.** And the IC50 (U-937)?
**A.** 0.124 µM

**Q.** And the Activity (Jurkat [27])?
**A.** 2.87%

**Q.** What about the Activity (Jurkat [28]) of the same compound?
**A.** 0.9%

**Q.** And the Activity (Jurkat [29])?
**A.** 3.67%

**Q.** And the Activity (Jurkat [30])?
**A.** 18.01%

**Q.** And the Activity (Jurkat [31])?
**A.** 5.09%

**Q.** And the Activity (Jurkat [32])?
**A.** 2.4%

**Q.** What about the Activity [33] of the same compound?
**A.** Toxic

**Q.** And the Activity (Jurkat [34])?
**A.** 34.96%

**Q.** What about the Activity (Jurkat [35]) of the same compound?
**A.** 13.2%
